Source: US9271978B2 (Zenith Epigenetics Corp., priority 2012, dated 2016)

How the values were obtained:
c-myc = assay: Inhibition of c-myc expression in MV4-11 cells (mRNA, real-time PCR); format: cell-based; parameters: key: Active: Compounds with an IC50 value less than 30 μM were deemed to be active.; Not Active: Compounds with an IC50 value less than 30 μM were deemed to be active; settings: Human AML MV4-11 cells, 3 h incubation
Summary of the method: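 MV4-11 cells (2.5×10^4) treated with compound or 0.1% DMSO for 3 h at 37 °C. c-myc mRNA measured by RT real-time PCR duplexed with cyclophilin. IC50 from dose–response curve.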

hIL-6 mRNA = assay: Inhibition of hIL-6 mRNA transcription in U937 cells; format: cell-based, human; parameters: key: Active: Compounds with an IC50 value less than 30 μM were deemed to be active.; Not Active: Compounds with an IC50 value less than 30 μM were deemed to be active; settings: LPS stimulation, active = IC50 <30 μM
Summary of the method: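 U937 cells differentiated 3 days with 60 ng/mL PMA, pretreated 1 h with compound, then stimulated with 1 ug/mL E. coli LPS for 3 h at 37° C. hIL-6 mRNA quantified by one-step qRT-PCR, Ct normalized to internal control, expressed as fold induction relative to control.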

hIL-17 mRNA = assay: Inhibition of hIL-17 mRNA transcription in human peripheral blood mononuclear cells; format: cell-based; parameters: key: Active: Compounds with an IC50 value less than 30 μM were deemed to be active.; Not Active: Compounds with an IC50 value less than 30 μM were deemed to be active; settings: OKT3 antibody stimulation
Protocol: In this example, hIL-17 mRNA in human peripheral blood mononuclear cells was quantitated to measure the transcriptional inhibition of hIL-17 when treated with a compound of the invention.
Human peripheral blood mononuclear cells were plated (2.0×10^5 cells per well) in a 96-well plate in 45 μL OpTimizer T Cell expansion media containing 20 ng/ml IL-2 and penicillin/streptomycin. The cells were treated with the test compound (45 μL. at 2× concentration), and then the cells were incubated at 37° C. for 1 h before addition of 10× stock OKT3 antibody at 10 ug/ml in media. Cells were incubated at 37° C. for 3 h before the cells were harvested. At time of harvest, cells were centrifuged (800 rpm, 5 min). Spent media was removed and cell lysis solution (70 μL) was added the cells in each well and incubated for 5-10 min at room temperature, to allow for complete cell lysis and detachment. mRNA was then prepared using the “mRNA Catcher PLUS plate” (Invitrogen), according to the protocol supplied. After the last wash, as much wash buffer as possible was aspirated without allowing the wells to dry. Elution buffer (E3, 70 μL) was then added to each well. mRNA was then eluted by incubating the mRNA Catcher PLUS plate with Elution Buffer for 5 min at 68° C. and then immediately placing the plate on ice.
(§1) The eluted mRNA isolated was then used in a one-step quantitative real-time PCR reaction, using components of the Ultra Sense Kit together with Applied Biosystems primer-probe mixes. Real-time PCR data was analyzed, normalizing the Ct values for hIL-17 to an internal control, prior to determining the fold induction of each unknown sample, relative to the control.

[1] = biological target: T1, Brd4 bromodomain 1 (BRD4(1)) (Homo sapiens, UniProt O60885); assay: Inhibition of tetra-acetylated histone H4 binding to Brd4 bromodomain 1 (TR-FRET); parameters: key: Active: Compounds with an IC50 value less than 30 μM were deemed to be active.; Not Active: Compounds with an IC50 value less than 30 μM were deemed to be active; settings: tetra-acetylated histone H4 peptide, active = IC50 <30 μM
T1 construct: Illustrative results with the first bromodomain of Brd4; made in house; host or cells: E. coli BL21 (DE3)
Summary of the method: (§2)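 N-terminally His-tagged bromodomains (200 nM), expressed in E. coli, were incubated with biotinylated tetra-acetylated histone H4 peptide (25-50 nM), Eu-cryptate streptavidin and XL665 anti-His antibody in HEPES pH 7.4 buffer with KF, 0.2% DMSO, 2 h at room temperature. Inhibition read as decreased 665/620 nm TR-FRET; IC50 from dose-response curves.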

[2] = tested on: human AML MV-4-11 (CRL-9591) cells; assay: Inhibition of cell proliferation in MV4-11 cells; format: cell-based; parameters: key: Active: Compounds with an IC50 value less than 30 μM were deemed to be active.; Not Active: Compounds with an IC50 value less than 30 μM were deemed to be active; settings: human AML MV-4-11 cells, 72 h; active = IC50 <30 μM
Summary of the method: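 Exponentially growing MV-4-11 cells (5×10^4/well) were treated immediately with two-fold dilutions of compound from 30 μM to 0.2 μM, in triplicate, for 72 h at 37° C, 5% CO2. Viability was measured by MTS absorbance at 490 nm after 3–4 h. Proliferation relative to DMSO after blank correction gave IC50.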

hMCP-1 mRNA = assay: Inhibition of hMCP-1 mRNA transcription in human peripheral blood mononuclear cells; format: cell-based; parameters: key: Active: Compounds with an IC50 value less than 30 μM were deemed to be active.; Not Active: Compounds with an IC50 value less than 30 μM were deemed to be active; settings: 3 h
Protocol: In this example, hMCP-1 mRNA in human peripheral blood mononuclear cells was quantitated to measure the transcriptional inhibition of hMCP-1 when treated with a compound of the present disclosure.
Human Peripheral Blood Mononuclear Cells were plated (1.0×10^5 cells per well) in a 96-well plate in 45 μL RPMI-1640 containing 10% FBS and penicillin/streptomycin. The cells were treated with the test compound (45 μL at 2× concentration), and then the cells were incubated at 37° C. for 3 h before the cells were harvested. At time of harvest, cells were transferred to V-bottom plates and centrifuged (800 rpm, 5 min). Spent media was removed and cell lysis solution (70 μL) was added the cells in each well and incubated for 5-10 min at room temperature, to allow for complete cell lysis and detachment. mRNA was then prepared using the “mRNA Catcher PLUS plate” (Invitrogen), according to the protocol supplied. After the last wash, as much wash buffer as possible was aspirated without allowing the wells to dry. Elution buffer (E3, 70 μL) was then added to each well. mRNA was then eluted by incubating the mRNA Catcher PLUS plate with Elution Buffer for 5 min at 68° C. and then immediately placing the plate on ice.
as §1, with “hMCP-1” for “hIL-17”

[3] = biological target: T2, second bromodomain of Brd2 (BRD2(2)) (Homo sapiens, UniProt P25440); assay: Inhibition of tetra-acetylated histone H4 binding to Brd2 bromodomain 2 (TR-FRET); parameters: key: Active: Compounds with an IC50 value less than 30 μM were deemed to be active.; Not Active: Compounds with an IC50 value less than 30 μM were deemed to be active; settings: tetra-acetylated histone H4 peptide, active = IC50 <30 μM
T2 construct: made in house; host or cells: E. coli BL21 (DE3)
Summary of the method: as §2

MM1.s cells = assay: In vivo efficacy, multiple myeloma xenograft model using MM1.s cells; parameters: species or system mouse; settings: MM1.s multiple myeloma xenograft in mice, oral 25 to 90 mg/kg b.i.d, tumor growth inhibition
Protocol: MM1.s cells (ATCC) were grown under standard cell culture conditions and SCID-Beige strain of female mice age 6-7 weeks were injected with 10×10^6 cells/animal in 100 μl PBS+100 μL Matrigel in the lower left abdominal flank. By approximately day 21 after MM1.s cells injection, mice were randomized based on tumor volume (L×W×H)/2) of average ^˜120 mm^3. Mice were dosed orally with compound at 25 to 90 mg/kg b.i.d in EA006 formulation at 10 mL/kg body weight dose volume. Tumor measurements were taken with electronic micro calipers and body weights measured on alternate days beginning from dosing period. The average tumor volumes, percent Tumor Growth Inhibition (TGI) and % change in body weights were compared relative to Vehicle control animals. The means, statistical analysis and the comparison between groups were calculated using Student's t-test in Excel.

T2 sequence (P25440 344-453 limits assumed): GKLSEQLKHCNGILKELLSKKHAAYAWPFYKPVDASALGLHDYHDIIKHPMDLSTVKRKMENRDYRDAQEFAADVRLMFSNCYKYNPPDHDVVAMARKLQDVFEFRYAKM

c-myc activity (IC50 <30 μM) (c-myc) | IL-6 activity (IC50 <30 μM) (hIL-6 mRNA) | IL-17 activity (IC50 < 30 μM) (hIL-17 mRNA) | FRET activity (IC50 <30 μM) BRD4(1) [1] | Cell Proliferation activity (IC50 <30 μM) [2] | MCP-1 activity (IC50 < 30 μM) (hMCP-1 mRNA) | FRET activity (IC50 <30 μM) BRD2(2) [3] | SMILES | In vivo activity (MM1.s cells)
Active | Active | Active | Active | Active | – | – | Cc1noc(C)c1-c1cc(N)c(=O)n(Cc2cccc3[nH]cc(C)c23)c1 [Example 271, 3-Amino-5-(3,5-dimethylisoxazol-4-yl)-1-((3-methyl-1H-indol-4-yl)methyl)pyridin-2(1H)-one] | –
Active | Active | Active | Active | Active | – | – | Cc1noc(C)c1-c1cc(N)c(=O)n(Cc2cccc3[nH]ccc23)c1 [Example 247, 1-((1H-Indol-4-yl)methyl)-3-amino-5-(3,5-dimethylisoxazol-4-yl)pyridin-2(1H)-one] | –
– | Active | – | Active | Active | Active | Active | Cc1noc(C)c1-c1ccc(=O)n(Cc2ccccc2F)c1 [Example 27, 5-(3,5-Dimethylisoxazol-4-yl)-1-(2-fluorobenzyl)pyridin-2(1H)-one] | –
– | – | – | Active | – | – | – | Cc1noc(C)c1-c1cc(N)c(=O)n(Cc2ccc(Cl)cc2)c1 [Example 152, 3-Amino-1-(4-chlorobenzyl)-5-(3,5-dimethylisoxazol-4-yl)pyridin-2(1H)-one] | Active
